Measurements published in patent publication US20250129097.
Like-named read-outs stand apart in the source and are kept apart here.

Assays:
[1] = from CCn1c(-c2cc(N3CCN(c4cccc(COC=O)c4)CC3)cnc2[C@H](C)OC)c(CC(C)(C)CO)c2cc([C@@H]3C[C@H]3CC[C@H](NC(=O)OC(C)(C)C)C(=O)N3CCC[C@@H](C(=O)O)N3)ccc21; ester bond; 18-membered ring; EDCI/HOBt/DIEA; DCM; 10.8 mM; 45.0 °C; 16.0 h
[2] = ester bond, 18-membered ring, EDCI/HOBt/DIEA, DCM

With `CCn1c(-c2cc(N3CCN(c4cccc(COC=O)c4)CC3)cnc2[C@H](C)OC)c2c3cc(ccc31)[C@@H]1C[C@H]1CC[C@H](NC(=O)OC(C)(C)C)C(=O)N1CCC[C@H](N1)C(=O)OCC(C)(C)C2` as the compound, how does the ring closure, yield after HPLC [1] read?
The ring closure, yield after HPLC was 4.8%.

With `CCn1c(-c2cccnc2[C@H](C)OC)c2c3cc(ccc31)[C@@H]1C[C@H]1OC[C@H](NC(=O)OC(C)(C)C)C(=O)N1CCC[C@H](N1)C(=O)OCC(C)(C)C2` as the compound, how does the ring closure, isolated yield ([2]; from CCn1c(-c2cccnc2[C@H](C)OC)c(CC(C)(C)CO)c2cc([C@@H]3C[C@H]3OC[C@H](NC(=O)OC(C)(C)C)C(=O)N3CCC[C@@H](C(=O)O)N3)ccc21, 13.8 mM, 20.0 °C, 12.0 h) read?
Its ring closure, isolated yield is 37%.

With `CCn1c(-c2cc(N3CCN(C(=O)OCc4ccccc4)CC3)cnc2[C@@H](C)OC)c(CC(C)(C)CO)c2cc([C@H]3C[C@@H]3N(C)C[C@@H](NC(=O)OC(C)(C)C)C(=O)N3CCC[C@@H](C(=O)OC)N3)ccc21` as the compound, how does the ring closure, isolated yield ([2]; the molecule shown is the open-chain precursor, 10.3 mM, 35.0 °C) read?
The ring closure, isolated yield was 16%.
